# Measurements from patent US10906873B2, “Substituted cyclic amides as herbicides” (FMC Corporation, priority 2015, dated 2021).
# System: pigweed (Amaranthus retroflexus)
# Assay: Test A preemergence, pigweed
# Type: in vivo
# Conditions: 125 g ai/ha, 0 to 100 scale
# Text: (§1) Seeds of plant species selected from barnyardgrass (Echinochloa crus-galli), crabgrass (large crabgrass, Digitaria sanguinalis), kochia (Kochia scoparia), ragweed (common ragweed, Ambrosia elatior), morningglory (Ipomoea spp.), velvetleaf (Abutilon theophrasti), ryegrass, It. (Italian ryegrass, Lolium multiflorum), foxtail, giant (giant foxtail, Setaria faberii), wheat (Triticum aestivum), corn (Zea mays), and pigweed (Amaranthus retroflexus), were planted into a blend of loam soil and sand and treated preemergence with a directed soil spray using test chemicals formulated in a non-phytotoxic solvent mixture which included a surfactant. At the same time, plants selected from these crop and weed species and also blackgrass (Alopecurus myosuroides), and galium (catchweed bedstraw, Galium aparine), were planted in pots containing the same blend of loam soil and sand and treated with postemergence applications of test chemicals formulated in the same manner. Plants ranged in height from 2 to 10 cm and were in the one- to two-leaf stage for the postemergence treatment. Treated plants and untreated controls were maintained in a greenhouse for approximately 10 d, after which time all treated plants were compared to untreated controls and visually evaluated for injury. Plant response ratings, summarized in Table A, are based on a 0 to 100 scale where 0 is no effect and 100 is complete control. A dash (-) response means no test result.
row,Compound,"Plant response rating, Pigweed"
1,O=C1NCC(Cc2ccc(C(F)(F)F)cc2)C1C(=O)Nc1ccccc1C(F)(F)F (stereo not drawn) [Compound 6],0

# Same assay, conditions: 500 g ai/ha, 0 to 100 scale
row,Compound,"Plant response rating, Pigweed"
1,O=C1NCC(Cc2ccc(C(F)(F)F)cc2)C1C(=O)Nc1ccccc1C(F)(F)F (stereo not drawn) [Compound 6],0

# System: barnyardgrass (Echinochloa crus-galli)
# Assay: Test A postemergence, barnyardgrass
# Type: in vivo
# Conditions: 125 g ai/ha, 0 to 100 scale
# Text: as §1
row,Compound,"Plant response rating, Barnyardgrass"
1,O=C1NCC(Cc2ccc(C(F)(F)F)cc2)C1C(=O)Nc1ccccc1C(F)(F)F (stereo not drawn) [Compound 6],0

# Same assay, conditions: 500 g ai/ha, 0 to 100 scale
row,Compound,"Plant response rating, Barnyardgrass"
1,O=C1NCC(Cc2ccc(C(F)(F)F)cc2)C1C(=O)Nc1ccccc1C(F)(F)F (stereo not drawn) [Compound 6],0

# System: ryegrass, It. (Italian ryegrass, Lolium multiflorum)
# Assay: Test A preemergence, ryegrass, It.
# Type: in vivo
# Conditions: 125 g ai/ha, 0 to 100 scale
# Text: as §1
row,Compound,"Plant response rating, Ryegrass, It."
1,O=C1NCC(Cc2ccc(C(F)(F)F)cc2)C1C(=O)Nc1ccccc1C(F)(F)F (stereo not drawn) [Compound 6],0

# Same assay, conditions: 500 g ai/ha, 0 to 100 scale
row,Compound,"Plant response rating, Ryegrass, It."
1,O=C1NCC(Cc2ccc(C(F)(F)F)cc2)C1C(=O)Nc1ccccc1C(F)(F)F (stereo not drawn) [Compound 6],0

# System: kochia (Kochia scoparia)
# Assay: Test A postemergence, kochia
# Type: in vivo
# Conditions: 125 g ai/ha, 0 to 100 scale
# Text: as §1
row,Compound,"Plant response rating, Kochia"
1,O=C1NCC(Cc2ccc(C(F)(F)F)cc2)C1C(=O)Nc1ccccc1C(F)(F)F (stereo not drawn) [Compound 6],0

# Same assay, conditions: 500 g ai/ha, 0 to 100 scale
row,Compound,"Plant response rating, Kochia"
1,O=C1NCC(Cc2ccc(C(F)(F)F)cc2)C1C(=O)Nc1ccccc1C(F)(F)F (stereo not drawn) [Compound 6],0

# System: pigweed (Amaranthus retroflexus)
# Assay: Test A postemergence, pigweed
# Type: in vivo
# Conditions: 125 g ai/ha, 0 to 100 scale
# Text: as §1
row,Compound,"Plant response rating, Pigweed"
1,O=C1NCC(Cc2ccc(C(F)(F)F)cc2)C1C(=O)Nc1ccccc1C(F)(F)F (stereo not drawn) [Compound 6],0

# Same assay, conditions: 500 g ai/ha, 0 to 100 scale
row,Compound,"Plant response rating, Pigweed"
1,O=C1NCC(Cc2ccc(C(F)(F)F)cc2)C1C(=O)Nc1ccccc1C(F)(F)F (stereo not drawn) [Compound 6],0

# System: ducksalad (Heteranthera limosa)
# Assay: Test B flooded paddy test, ducksalad
# Type: in vivo
# Conditions: Flood, 500 g ai/ha; scale of 0 to 100 where 0 is no effect and 100 is complete control; 13 to 15 d
# Experimental: (§2) Plant species in the flooded paddy test selected from rice (Oryza sativa), sedge, umbrella (small-flower umbrella sedge, Cyperus difformis), ducksalad (Heteranthera limosa), and barnyardgrass (Echinochloa crus-galli) were grown to the 2-leaf stage for testing. At time of treatment, test pots were flooded to 3 cm above the soil surface, treated by application of test compounds directly to the paddy water, and then maintained at that water depth for the duration of the test. Treated plants and controls were maintained in a greenhouse for 13 to 15 d, after which time all species were compared to controls and visually evaluated. Plant response ratings, summarized in Table B, are based on a scale of 0 to 100 where 0 is no effect and 100 is complete control. A dash (-) response means no test result.
row,Compound,"Plant response rating, Ducksalad"
1,O=C1NCC(Cc2ccc(C(F)(F)F)cc2)C1C(=O)Nc1ccccc1C(F)(F)F (stereo not drawn) [Compound 6],0

# System: sedge, umbrella (small-flower umbrella sedge, Cyperus difformis)
# Assay: Test B flooded paddy test, sedge, umbrella
# Type: in vivo
# Conditions: Flood, 500 g ai/ha; scale of 0 to 100 where 0 is no effect and 100 is complete control; 13 to 15 d
# Experimental: as §2
row,Compound,"Plant response rating, Sedge, Umbrella"
1,O=C1NCC(Cc2ccc(C(F)(F)F)cc2)C1C(=O)Nc1ccccc1C(F)(F)F (stereo not drawn) [Compound 6],0

# System: galium (catchweed bedstraw, Galium aparine)
# Assay: Test A postemergence, galium
# Type: in vivo
# Conditions: 125 g ai/ha, 0 to 100 scale
# Text: as §1
row,Compound,"Plant response rating, Galium"
1,O=C1NCC(Cc2ccc(C(F)(F)F)cc2)C1C(=O)Nc1ccccc1C(F)(F)F (stereo not drawn) [Compound 6],0

# Same assay, conditions: 500 g ai/ha, 0 to 100 scale
row,Compound,"Plant response rating, Galium"
1,O=C1NCC(Cc2ccc(C(F)(F)F)cc2)C1C(=O)Nc1ccccc1C(F)(F)F (stereo not drawn) [Compound 6],0

# System: foxtail, giant (giant foxtail, Setaria faberii)
# Assay: Test A preemergence, foxtail, giant
# Type: in vivo
# Conditions: 125 g ai/ha, 0 to 100 scale
# Text: as §1
row,Compound,"Plant response rating, Foxtail, Giant"
1,O=C1NCC(Cc2ccc(C(F)(F)F)cc2)C1C(=O)Nc1ccccc1C(F)(F)F (stereo not drawn) [Compound 6],0

# Same assay, conditions: 500 g ai/ha, 0 to 100 scale
row,Compound,"Plant response rating, Foxtail, Giant"
1,O=C1NCC(Cc2ccc(C(F)(F)F)cc2)C1C(=O)Nc1ccccc1C(F)(F)F (stereo not drawn) [Compound 6],0

# System: blackgrass (Alopecurus myosuroides)
# Assay: Test A postemergence, blackgrass
# Type: in vivo
# Conditions: 125 g ai/ha, 0 to 100 scale
# Text: as §1
row,Compound,"Plant response rating, Blackgrass"
1,O=C1NCC(Cc2ccc(C(F)(F)F)cc2)C1C(=O)Nc1ccccc1C(F)(F)F (stereo not drawn) [Compound 6],0

# Same assay, conditions: 500 g ai/ha, 0 to 100 scale
row,Compound,"Plant response rating, Blackgrass"
1,O=C1NCC(Cc2ccc(C(F)(F)F)cc2)C1C(=O)Nc1ccccc1C(F)(F)F (stereo not drawn) [Compound 6],0

# System: rice (Oryza sativa)
# Assay: Test B flooded paddy test, rice
# Type: in vivo
# Conditions: Flood, 500 g ai/ha; scale of 0 to 100 where 0 is no effect and 100 is complete control; 13 to 15 d
# Experimental: as §2
row,Compound,"Plant response rating, Rice"
1,O=C1NCC(Cc2ccc(C(F)(F)F)cc2)C1C(=O)Nc1ccccc1C(F)(F)F (stereo not drawn) [Compound 6],0

# System: ragweed (common ragweed, Ambrosia elatior)
# Assay: Test A postemergence, ragweed
# Type: in vivo
# Conditions: 125 g ai/ha, 0 to 100 scale
# Text: as §1
row,Compound,"Plant response rating, Ragweed"
1,O=C1NCC(Cc2ccc(C(F)(F)F)cc2)C1C(=O)Nc1ccccc1C(F)(F)F (stereo not drawn) [Compound 6],0

# Same assay, conditions: 500 g ai/ha, 0 to 100 scale
row,Compound,"Plant response rating, Ragweed"
1,O=C1NCC(Cc2ccc(C(F)(F)F)cc2)C1C(=O)Nc1ccccc1C(F)(F)F (stereo not drawn) [Compound 6],0

# System: foxtail, giant (giant foxtail, Setaria faberii)
# Assay: Test A postemergence, foxtail, giant
# Type: in vivo
# Conditions: 125 g ai/ha, 0 to 100 scale
# Text: as §1
row,Compound,"Plant response rating, Foxtail, Giant"
1,O=C1NCC(Cc2ccc(C(F)(F)F)cc2)C1C(=O)Nc1ccccc1C(F)(F)F (stereo not drawn) [Compound 6],0

# Same assay, conditions: 500 g ai/ha, 0 to 100 scale
row,Compound,"Plant response rating, Foxtail, Giant"
1,O=C1NCC(Cc2ccc(C(F)(F)F)cc2)C1C(=O)Nc1ccccc1C(F)(F)F (stereo not drawn) [Compound 6],0

# System: barnyardgrass (Echinochloa crus-galli)
# Assay: Test A preemergence, barnyardgrass
# Type: in vivo
# Conditions: 125 g ai/ha, 0 to 100 scale
# Text: as §1
row,Compound,"Plant response rating, Barnyardgrass"
1,O=C1NCC(Cc2ccc(C(F)(F)F)cc2)C1C(=O)Nc1ccccc1C(F)(F)F (stereo not drawn) [Compound 6],0

# Same assay, conditions: 500 g ai/ha, 0 to 100 scale
row,Compound,"Plant response rating, Barnyardgrass"
1,O=C1NCC(Cc2ccc(C(F)(F)F)cc2)C1C(=O)Nc1ccccc1C(F)(F)F (stereo not drawn) [Compound 6],0

# System: ragweed (common ragweed, Ambrosia elatior)
# Assay: Test A preemergence, ragweed
# Type: in vivo
# Conditions: 125 g ai/ha, 0 to 100 scale
# Text: as §1
row,Compound,"Plant response rating, Ragweed"
1,O=C1NCC(Cc2ccc(C(F)(F)F)cc2)C1C(=O)Nc1ccccc1C(F)(F)F (stereo not drawn) [Compound 6],0

# Same assay, conditions: 500 g ai/ha, 0 to 100 scale
row,Compound,"Plant response rating, Ragweed"
1,O=C1NCC(Cc2ccc(C(F)(F)F)cc2)C1C(=O)Nc1ccccc1C(F)(F)F (stereo not drawn) [Compound 6],0

# System: kochia (Kochia scoparia)
# Assay: Test A preemergence, kochia
# Type: in vivo
# Conditions: 125 g ai/ha, 0 to 100 scale
# Text: as §1
row,Compound,"Plant response rating, Kochia"
1,O=C1NCC(Cc2ccc(C(F)(F)F)cc2)C1C(=O)Nc1ccccc1C(F)(F)F (stereo not drawn) [Compound 6],0

# Same assay, conditions: 500 g ai/ha, 0 to 100 scale
row,Compound,"Plant response rating, Kochia"
1,O=C1NCC(Cc2ccc(C(F)(F)F)cc2)C1C(=O)Nc1ccccc1C(F)(F)F (stereo not drawn) [Compound 6],0

# System: barnyardgrass (Echinochloa crus-galli)
# Assay: Test B flooded paddy test, barnyardgrass
# Type: in vivo
# Conditions: Flood, 500 g ai/ha; scale of 0 to 100 where 0 is no effect and 100 is complete control; 13 to 15 d
# Experimental: as §2
row,Compound,"Plant response rating, Barnyardgrass"
1,O=C1NCC(Cc2ccc(C(F)(F)F)cc2)C1C(=O)Nc1ccccc1C(F)(F)F (stereo not drawn) [Compound 6],0

# System: wheat (Triticum aestivum)
# Assay: Test A postemergence, wheat
# Type: in vivo
# Conditions: 125 g ai/ha, 0 to 100 scale
# Text: as §1
row,Compound,"Plant response rating, Wheat"
1,O=C1NCC(Cc2ccc(C(F)(F)F)cc2)C1C(=O)Nc1ccccc1C(F)(F)F (stereo not drawn) [Compound 6],0

# Same assay, conditions: 500 g ai/ha, 0 to 100 scale
row,Compound,"Plant response rating, Wheat"
1,O=C1NCC(Cc2ccc(C(F)(F)F)cc2)C1C(=O)Nc1ccccc1C(F)(F)F (stereo not drawn) [Compound 6],0

# System: ryegrass, It. (Italian ryegrass, Lolium multiflorum)
# Assay: Test A postemergence, ryegrass, It.
# Type: in vivo
# Conditions: 125 g ai/ha, 0 to 100 scale
# Text: as §1
row,Compound,"Plant response rating, Ryegrass, It."
1,O=C1NCC(Cc2ccc(C(F)(F)F)cc2)C1C(=O)Nc1ccccc1C(F)(F)F (stereo not drawn) [Compound 6],0

# Same assay, conditions: 500 g ai/ha, 0 to 100 scale
row,Compound,"Plant response rating, Ryegrass, It."
1,O=C1NCC(Cc2ccc(C(F)(F)F)cc2)C1C(=O)Nc1ccccc1C(F)(F)F (stereo not drawn) [Compound 6],0

# System: corn (Zea mays)
# Assay: Test A postemergence, corn
# Type: in vivo
# Conditions: 125 g ai/ha, 0 to 100 scale
# Text: as §1
row,Compound,"Plant response rating, Corn"
1,O=C1NCC(Cc2ccc(C(F)(F)F)cc2)C1C(=O)Nc1ccccc1C(F)(F)F (stereo not drawn) [Compound 6],0

# Same assay, conditions: 500 g ai/ha, 0 to 100 scale
row,Compound,"Plant response rating, Corn"
1,O=C1NCC(Cc2ccc(C(F)(F)F)cc2)C1C(=O)Nc1ccccc1C(F)(F)F (stereo not drawn) [Compound 6],0
